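Where inhibition never reached the appropriate level, the endpoint shown equals the highest concentration tested. Otherwise, values were interpolated linearly from a five-concentration, 48-hour dose response in 96-well plates. GI50: concentration for 50% inhibition of growth.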 Calls of active or inactive are those of the source. Rule as the data show it: active = GI50 up to about 1.1 µM and inactive = higher.
Assays:
Assay in all cases: DTP human tumour cell line panel, 48 h
[1] = tested on: NCI-H23
[2] = tested on: DU-145
[3] = tested on: 786-0
[4] = tested on: SN12C
[5] = tested on: NCI-H460
[6] = tested on: CAKI-1
[7] = tested on: TK-10
[8] = tested on: MOLT-4
[9] = tested on: SR
[10] = tested on: M14
[11] = tested on: COLO 205
[12] = tested on: SK-MEL-28
[13] = tested on: CCRF-CEM
[14] = tested on: RPMI-8226
[15] = tested on: SW-620
[16] = tested on: OVCAR-5
[17] = tested on: IGROV-1
[18] = tested on: Malme-3M
[19] = tested on: A549
[20] = tested on: PC-3

Row | SMILES | GI50 [1] | GI50 [2] | GI50 [3] | GI50 [4] | GI50 [5] | GI50 [6] | GI50 [7] | GI50 [8] | GI50 [9] | GI50 [10] | GI50 [11] | GI50 [12] | GI50 [13] | GI50 [14] | GI50 [15] | GI50 [16] | GI50 [17] | GI50 [18] | GI50 [19] | GI50 [20]
1 | CCCCCc1nnc(NS(=O)(=O)c2ccc(NC(=O)OCC(C)C)cc2)s1 | 53.2 µM (inactive) | 52 µM (inactive) | 40.8 µM (inactive) | 33.9 µM (inactive) | 31 µM (inactive) | 36.2 µM (inactive) | 36.9 µM (inactive) | 20.1 µM (inactive) | 16.4 µM (inactive) | 41.9 µM (inactive) | 18.5 µM (inactive) | 41.8 µM (inactive) | 26.4 µM (inactive) | 19.3 µM (inactive) | 40.6 µM (inactive) | 54.7 µM (inactive) | 25.7 µM (inactive) | 34.9 µM (inactive) | 34.2 µM (inactive) | 36.8 µM (inactive)
2 | CN(C)C(=O)CO/N=C1/C(=C2/C(=O)Nc3ccccc32)Nc2ccccc21 | > 100 µM (inactive) | > 100 µM (inactive) | 64.7 µM (inactive) | > 100 µM (inactive) | > 100 µM (inactive) | 4.69 µM (inactive) | 40.9 µM (inactive) | > 100 µM (inactive) | 88.7 µM (inactive) | 97.3 µM (inactive) | 31.6 µM (inactive) | > 100 µM (inactive) | > 100 µM (inactive) | > 100 µM (inactive) | > 100 µM (inactive) | > 100 µM (inactive) | > 100 µM (inactive) | > 100 µM (inactive) | > 100 µM (inactive) | > 100 µM (inactive)
3 | Cc1cc(NS(=O)(=O)c2ccc(NC(=O)c3ccc4nc5ccccc5c(Nc5ccc(S(=O)(=O)N=C(N)N)cc5)c4c3)cc2)no1 | 18.8 µM (inactive) | 17.1 µM (inactive) | 15.2 µM (inactive) | 17 µM (inactive) | 17.4 µM (inactive) | 18.9 µM (inactive) | 25.5 µM (inactive) | 17.1 µM (inactive) | 18.3 µM (inactive) | 15.1 µM (inactive) | 18.8 µM (inactive) | 18.2 µM (inactive) | 11.2 µM (inactive) | 23.7 µM (inactive) | 20.8 µM (inactive) | 17.5 µM (inactive) | 16.2 µM (inactive) | 15.6 µM (inactive) | 16.9 µM (inactive) | 16.9 µM (inactive)
4 | C(=N\c1nc2cc3sc(/N=C/c4ccccc4)nc3cc2s1)/c1ccccc1 | 39 µM (inactive) | > 66.5 µM (inactive) | > 100 µM (inactive) | 69.3 µM (inactive) | 7.52 µM (inactive) | > 79.4 µM (inactive) | > 50.6 µM (inactive) | 9.75 µM (inactive) | 10.6 µM (inactive) | > 100 µM (inactive) | 4.01 µM (inactive) | > 100 µM (inactive) | 2.49 µM (inactive) | 29.7 µM (inactive) | 37.4 µM (inactive) | > 69.2 µM (inactive) | > 63.2 µM (inactive) | > 65.3 µM (inactive) | 9.66 µM (inactive) | 98.4 µM (inactive)
5 | COc1cccc2ccc3c(c12)C(=O)OC31CCc2c(C)cccc21 (stereo not given) | 8.51 µM (inactive) | 34.2 µM (inactive) | 28.8 µM (inactive) | 16.5 µM (inactive) | 10.6 µM (inactive) | 7.26 µM (inactive) | 23.1 µM (inactive) | 13.2 µM (inactive) | 7.16 µM (inactive) | 19.9 µM (inactive) | 22.6 µM (inactive) | 22.4 µM (inactive) | 24 µM (inactive) | 6.87 µM (inactive) | 12.1 µM (inactive) | 26.5 µM (inactive) | 34.5 µM (inactive) | 19.1 µM (inactive) | 17.1 µM (inactive) | 15.6 µM (inactive)
6 | N#Cc1sc2c(c1OC(=O)c1ccc(C(F)(F)F)cc1)c(=O)n(-c1ccccc1)c(=S)n2-c1ccccc1 | 29.6 µM (inactive) | 38.5 µM (inactive) | 32.1 µM (inactive) | 29.5 µM (inactive) | 30.3 µM (inactive) | 32.4 µM (inactive) | 27.6 µM (inactive) | 19.5 µM (inactive) | 0.0481 µM (active) | 24.2 µM (inactive) | 21.6 µM (inactive) | 33.8 µM (inactive) | 10.2 µM (inactive) | 17.4 µM (inactive) | 40.2 µM (inactive) | 49.2 µM (inactive) | 21.2 µM (inactive) | 33 µM (inactive) | 23.3 µM (inactive) | 26.7 µM (inactive)
7 | Cc1cc(N(CCC#N)CCC#N)ccc1/C=N/NC(=O)c1ccccc1 | 25.2 µM (inactive) | 26.1 µM (inactive) | 31.6 µM (inactive) | 28.5 µM (inactive) | 9.1 µM (inactive) | 23.1 µM (inactive) | 48.3 µM (inactive) | 24.3 µM (inactive) | 1.34 µM (inactive) | 40.6 µM (inactive) | 15.7 µM (inactive) | 31.5 µM (inactive) | 23.1 µM (inactive) | 58.1 µM (inactive) | 8.38 µM (inactive) | > 80.5 µM (inactive) | 12.9 µM (inactive) | 33.2 µM (inactive) | 24.4 µM (inactive) | 21.8 µM (inactive)
8 | CSc1ncnc2c1CCN2 | 4.51 µM (inactive) | > 10 µM (inactive) | > 10 µM (inactive) | > 100 µM (inactive) | 5.37 µM (inactive) | > 10 µM (inactive) | > 10 µM (inactive) | > 10 µM (inactive) | 1.78 µM (inactive) | > 10 µM (inactive) | 8.85 µM (inactive) | > 10 µM (inactive) | > 10 µM (inactive) | > 10 µM (inactive) | 7.96 µM (inactive) | > 10 µM (inactive) | > 10 µM (inactive) | 6.62 µM (inactive) | > 10 µM (inactive) | > 10 µM (inactive)
9 | COc1cc2c(/C=C3/C(=O)Nc4ccc(Cl)cc43)c(Cl)[nH]c2cc1C | 0.916 µM (active) | 1.36 µM (inactive) | 0.731 µM (active) | 0.325 µM (active) | 0.524 µM (active) | 0.39 µM (active) | 1.05 µM (active) | 0.294 µM (active) | 0.32 µM (active) | 0.962 µM (active) | 0.352 µM (active) | 0.26 µM (active) | 0.332 µM (active) | 0.91 µM (active) | 0.596 µM (active) | 3.27 µM (inactive) | 0.368 µM (active) | 0.82 µM (active) | 0.711 µM (active) | 0.505 µM (active)
10 | O=C(Cc1ccccc1F)NC1=C(Cl)C(=O)c2ccccc2C1=O | 0.778 µM (active) | 10.1 µM (inactive) | 3.09 µM (inactive) | 3.18 µM (inactive) | 1.38 µM (inactive) | 2.79 µM (inactive) | 2.4 µM (inactive) | 1.06 µM (active) | 0.578 µM (active) | 0.802 µM (active) | 3.23 µM (inactive) | 0.822 µM (active) | 0.428 µM (active) | 0.436 µM (active) | 0.721 µM (active) | 4.08 µM (inactive) | 1.46 µM (inactive) | 1.35 µM (inactive) | 2.51 µM (inactive) | 1.25 µM (inactive)
11 | COc1cc2ccc(=O)oc2cc1O [SCOPOLETIN] | 69 µM (inactive) | > 100 µM (inactive) | > 100 µM (inactive) | 51.4 µM (inactive) | 18.4 µM (inactive) | 119 µM (inactive) | > 100 µM (inactive) | 28.8 µM (inactive) | > 100 µM (inactive) | > 100 µM (inactive) | 142 µM (inactive) | 73.3 µM (inactive) | 30.4 µM (inactive) | 46.1 µM (inactive) | 67.3 µM (inactive) | 156 µM (inactive) | 69.3 µM (inactive) | 156 µM (inactive) | 40.1 µM (inactive) | > 100 µM (inactive)

Source: ChEMBL document CHEMBL1201862, “PubChem BioAssay data set” (2004)
